Data as given in article PMC3765993, “The duration of sleep promoting efficacy by dual orexin receptor antagonists is dependent upon receptor occupancy threshold” (BMC Neuroscience, 2013).
Where two headings read alike, the source gives them in different places.

Columns and labels:
rhesus monkeys [1] = assay: Monkey Serial Choice Reaction Time (SCRT) task; type: in vivo; settings: 10 mg/kg p.o.; for Next-day attention (SCRT, correct responses to shortest cues), 16 h after dosing: versus vehicle, 10 mg/kg
Source text: Each SCRT trial was initiated with the appearance of 10 blue square ‘target’ images evenly distributed at 3-inch intervals around the perimeter of a touchscreen presented together with a centrally located circular ‘centering’ image (1.4 inch diameter circle). The task began with the monkey touching the centering image, which then turned gray. The monkey was then required to touch the centering image continuously throughout a variable pre-cue interval of 0.25-7.5 s. On completion of the pre-cue interval, one of the blue target images was cued by turning red for one of four cue durations before turning back to blue. To obtain a reward, the monkey was required to touch the target image that had been ‘cued’ red within a 5 s limited hold period. […] On completion of the trial, an inter-trial interval of 2 s was initiated prior to the next trial. […] If the monkey initiated a trial but removed its hand from the touchscreen prior to the appearance of the cue, the trial was terminated and the screen was blanked during a 2 s inter-trial interval. Sessions were terminated after 20 min. Cue location and duration were pseudo-randomly assigned. Cue duration and the target size were titrated for each subject on the basis of performance during previous baseline sessions to yield a performance of 60–80% correct responses for the trials of the shortest cue duration. The briefest cue duration varied from 0.04–0.1 s and the cues varied in size from 0.2–0.7 inches, although each cue had the same touch-sensitive area of 1.75 inches. Values reported in the current study reflect the proportion of correct responses to targets after cues of the shortest duration only.

in vivo = settings: rhesus monkey, po, 10 mg/kg
rhesus monkeys [2] = assay: Monkey Delayed Match to Sample (DMS) task; type: in vivo; settings: 10 mg/kg p.o., versus vehicle
Source text: All cognition testing occurred in the animal’s home cage equipped with a touchscreen. Each DMS trial was initiated with a single ‘sample’ image (150 × 200 pixels: 1.8 inches × 2.3 inches) in one of eight colors presented at the center of a touchscreen. Evaluation began when the monkey touched the sample image, at which point the screen became blank for a retention period. Following the retention period, four choice images (150 × 200 pixels) were presented, one in each corner of the screen. One of the four choice images matched the color of the sample image, whereas the three remaining ‘distractor’ images were drawn from the pool of remaining colors. A reinforcer was provided when the monkey touched the choice image that matched the color of the sample image. […] Test sessions comprised 96 trials or lasted for up to 45 min. […] Response latencies to sample and choice images were also recorded. Values reported reflect the proportion of correct responses collapsed over all retention intervals. Differences from vehicle were examined using repeated measures ANOVA.

rhesus monkeys [3] = system: rhesus monkeys; design: method as in PMID 23552372; settings: 10 mg/kg, active-phase dosing, quantified over 2 h; cited from earlier work
[4] = rhesus monkeys, 10 mg/kg p.o.
rhesus monkeys [5] = assay: Rhesus monkey polysomnography (active wake); type: in vivo; settings: for Active wake late in the inactive phase and next morning (residual sleep effect): 10 mg/kg p.o. 2 h before lights out, 10 mg/kg
Procedure: Animals were fed on a calorie-controlled diet of laboratory chow supplemented with fruit and vegetables. Water was available ad libitum with the exception of those monkeys trained to perform cognitive tasks, for which access was restricted for up to 4 h prior to and during cognitive testing. Treatment occurred at 14:40 (Zeitgeber time [ZT] 10:10) in a balanced 1-day cross-over design: 1 day of drug or vehicle followed by 6 days of baseline followed by 1 day of vehicle or drug. Cognition tasks were scheduled for next-day evaluation as described below. Sleep/wake architecture was scored according to vigilance state (active wake, quiet wake, delta sleep I, delta sleep II, and REM sleep) at 30-minute intervals and analyzed as previously described. Spectral analysis of continuous EEG was quantified between vehicle and compound after binning continuous frequencies into canonical frequency bands (reported herein: Delta, 0.5 – 4 Hz; Theta, 4.0 – 7 Hz; Gamma, 35.0 – 100.0 Hz). qEEG values are spectral power (uV2) log transformed before analysis and averaged over 30-minute intervals, expressed as means +/− SEM, and compared with vehicle using a mixed-model ANOVA at each time point with random effects for subject and date within subject in the R statistical computing environment (cran.us.r-project.org; the R Foundation for Statistical Computing, Vienna, Austria) using a linear mixed effects model for significance testing.

rhesus monkeys [6] = settings: sleep-promoting doses; cited from earlier work
[7] = Unbound (free) plasma fraction, rat
[8] = Free plasma fraction, human
OX2R [9] = biological target: T1, OX2R (Homo sapiens, UniProt O43614); assay: Human plasma concentration calculated for a given OX2R occupancy (from transgenic rat occupancy, free-fraction normalized); type: in vivo; settings: free + bound; normalized for free fraction (rat 1.4%, human 1.0%)
T1 sequence (O43614 1-444): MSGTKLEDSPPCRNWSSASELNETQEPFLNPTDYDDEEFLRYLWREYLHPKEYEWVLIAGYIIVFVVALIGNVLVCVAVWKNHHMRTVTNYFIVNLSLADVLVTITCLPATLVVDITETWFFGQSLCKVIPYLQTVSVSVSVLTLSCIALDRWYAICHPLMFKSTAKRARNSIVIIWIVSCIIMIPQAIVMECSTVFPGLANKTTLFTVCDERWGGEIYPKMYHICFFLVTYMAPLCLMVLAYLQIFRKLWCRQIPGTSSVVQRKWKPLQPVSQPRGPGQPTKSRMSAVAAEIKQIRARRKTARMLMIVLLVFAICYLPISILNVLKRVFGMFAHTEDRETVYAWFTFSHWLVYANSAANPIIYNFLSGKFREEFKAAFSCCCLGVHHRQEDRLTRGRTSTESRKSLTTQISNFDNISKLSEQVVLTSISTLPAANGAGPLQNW

dogs = settings: cited from earlier work
[10] = Plasma and CSF compound levels in satellite rats; settings: rats
Procedure: Separately, the relationship between OX2R occupancy relative to plasma exposure was determined by administering DORA-12 intravenously (i.v.) over a range of doses to transgenic rats expressing human OX2R to determine a full occupancy curve over a wide range of plasma concentrations in order to define the maximal occupancy against which raw occupancy values could be normalized. This relationship was then used to determine the OX2R occupancy in PSG experiments from measured plasma concentrations.
Occupancy of human OX2R in transgenic rats expressing the receptor via the rat enolase promoter was performed ex vivo in radioligand-binding-displacement assays essentially as previously described with minor modifications. To determine the relationship between OX2R occupancy for a given compound over a full range of plasma and CSF concentrations, hOX2R-expressing rats were dosed i.v. with compound. Immediately following 30 min of i.v. administration, animals were anesthetized, sacrificed, and CSF, blood, and brain tissue were harvested and frozen for analysis. Frozen tissue was weighed and thawed coincident with homogenization. The homogenate was pelleted at 21,000 × g for 1 min and the pellet was resuspended. […] Non-specific binding was determined by the addition of 1000-fold excess unlabeled ligand. Experimental (dosed)-specific binding was compared with control (vehicle-dosed) binding ([specific total counts minus specific experimental counts]/specific total counts × 100 = percent occupancy). Raw occupancy values determined in this manner over a range of plasma and CSF values were then used to construct a normalized curve where the theoretical maximum occupancy value was defined as 100% and occupancies relative to plasma or CSF values were fit to a […] (hyperbola) curve (GraphPad Prism, San Diego, CA, USA). […] In separate experiments, plasma, CSF, and brain tissue was collected at time points following dosing to directly measure compound levels and corresponding OX2R occupancies at these times. Resulting occupancy relative to measured plasma levels of compound was fit to a normalized binding curve as described previously.

[11] = Unbound (free) plasma fraction, dog
OX2R [12] = biological target: T1, OX2R; assay: OX2R occupancy, ex vivo radioligand-binding displacement in transgenic rats expressing human OX2R; design: from tissue; host or cells: brain homogenate of transgenic rats expressing hOX2R under the rat enolase promoter; species or system transgenic rat; settings: rats, calculated from plasma value on normalized occupancy curve
Source text: Frozen tissue was weighed and thawed coincident with homogenization.

[13] = Suvorexant plasma levels in satellite dogs; settings: 1 or 3 mg/kg p.o.
Orexin 2 receptor = biological target: T2, Orexin 2 receptor (Homo sapiens, UniProt O43614); assay: Orexin 2 receptor binding kinetics
T2 sequence (O43614 1-444): T1 sequence (O43614 1-444)

[14] = Suvorexant plasma levels in humans (Phase 1)
OX2R [15] = biological target: T1, OX2R; settings: free + bound; cited from earlier work

For `CN1CCN(C(=O)O[C@H]2c3nccnc3C(=O)N2c2ccc(Cl)cn2)CC1` [Eszopiclone], the “Time for which effects on attention were observed” value (rhesus monkeys [1]) was “up to 16 h”, the “Next-day attention (SCRT, correct responses to shortest cues), 16 h after dosing” value (rhesus monkeys [1]) was “significantly impair attention” and the “Next-day attention (SCRT, correct responses to shortest cues), 16 h after dosing” value (rhesus monkeys [1]; listed as eszopiclone) was “significant deficits”. The Cmax (in vivo) was 1680 nM, the concentration at 17 h (in vivo) was 535 nM and the “Next-day recognition memory (DMS), 14 h after dosing” value (rhesus monkeys [2]) was “did not demonstrate next-day sleep effects or memory impairment”. The “Next-day recognition memory (DMS), 14 h after dosing” value (rhesus monkeys [2]; listed as eszopiclone) was “not”, the “Attenuation of active wake relative to vehicle” value (rhesus monkeys [3]) was 55.0 min and the “Time of plasma Cmax” value [4] was 0.5 h. For the same compound, the “Time for which reductions in active wake were detectable” value (rhesus monkeys [5]; 10 mg/kg p.o.) was “up to 6 h”, the “Active wake late in the inactive phase and next morning (residual sleep effect)” value (rhesus monkeys [5]) was “did not demonstrate next-day sleep effects” and the “Active wake late in the inactive phase and next morning (residual sleep effect)” value (rhesus monkeys [5]; listed as eszopiclone) was “no consistent attenuation of active wake”. The “Cognitive assessment in DMS and SCRT tasks within 2 h following treatment” value (rhesus monkeys [6]) was “substantial deficits”.
In the case of `Cc1ccc(-n2nccn2)c(C(=O)N2CCN(c3nc4cc(Cl)ccc4o3)CC[C@H]2C)c1` [Suvorexant, [(7R)-4-(5-chloro-1,3-benzoxazol-2-yl)-7-methyl-1,4-diazepan-1-yl][5-methyl-2-(2H-1,2,3-triazol-2-yl)phenyl]methanone], the fraction unbound [7] is reported as 0.014, the fraction unbound [8] is reported as 0.01 and the “Human plasma concentration calculated to correspond to 65% OX2R occupancy” value (OX2R [9]) is reported as 0.33 µM. The “Duration of effects on active wake” value (dogs; 1 mg/kg) was “up to 4 h”, the “Duration of effects on active wake” value (dogs; 3 mg/kg) was “up to 7.5 h” and the Plasma ([10]; dose 10 mg/kg) was 1600.0 nM. The Plasma ([10]; dose 30 mg/kg) was 2100.0 nM, the Plasma ([10]; dose 100 mg/kg) was 5100.0 nM and the fraction unbound [11] was 0.01. For the same compound, the “OX2R Occ (% max)” value (OX2R [12]; dose 10 mg/kg) was 92.6 % max, the “OX2R Occ (% max)” value (OX2R [12]; dose 30 mg/kg) was 94.3 % max and the “OX2R Occ (% max)” value (OX2R [12]; dose 100 mg/kg) was 97.6 % max. The “Plasma concentration at time points when efficacy was observed” value [13] was > 342 nM, the “Plasma exposure corresponding to efficacy” value [13] was > 342 nM and the “T1/2 OFF (half-life off-rates)” value (Orexin 2 receptor) was 1.49 h. The “T1/2 ON (binding half-life)” value (Orexin 2 receptor; almorexant applied 3-fold above its Kd (value an underestimate)) was 1.34 h, the Tmax ([14]; human, in vivo) was ≤ 3 h and the half-life ([14]; human, in vivo) was > 8 h. The “Post-dose time by which mean plasma concentrations fell below level for 65% OX2R occupancy” value ([14]; humans, 10 and 20 mg doses) was ≤ 8 h and the “Plasma level calculated to correspond to 80% OX2R occupancy in humans” value (OX2R [15]) was 0.71 µM.
